# In paper PMC7617969, “Carboxylic Acid Bioisosteres Boost Nurr1 Agonist Selectivity” (Journal of medicinal chemistry, 2025):
# What was measured:
# Nurr1 LBD homodimer = target: T1, Nurr1 LBD homodimer (Homo sapiens, UniProt P43354); experiment: Nurr1 homodimerization assay (HTRF); assay type: biochemical; conditions: Tb3+-cryptate labeled Nurr1 LBD and sGFP labeled Nurr1 LBD
# T1 construct: Biotinylated recombinant Nurr1 LBD protein and sGFP-Nurr1 LBD protein (FRET acceptor) were expressed and purified as described previously[28]; sGFP-Nurr1 LBD protein (FRET acceptor) were expressed and purified as described previously[28]; made in house
# Method: Modulation of Nurr1 LBD homodimerization by 32 was studied in a homogenous time-resolved fluorescence resonance energy transfer (HTRF) based assay. Biotinylated recombinant Nurr1 LBD protein and sGFP-Nurr1 LBD protein (FRET acceptor) were expressed and purified as described previously. […] Free sGFP was added to keep the total GFP content stable at 0.5 μM. Assay solutions were prepared in HTRF assay buffer (25 mM HEPES pH 7.5, 10% (m/v) glycerol, 5 mM DTT) supplemented with 0.1% (w/v) CHAPS as well as 1% DMSO with 32 at fixed concentrations or DMSO alone as negative control (apo). The FRET donor complex formed from biotinylated Nurr1 LBD (final concentration 0.188 nM) and Tb-SA (0.375 nM) was kept constant while the concentration of sGFP-labeled protein was varied. Samples were equilibrated at RT for 2 h before fluorescence intensities (FI) after excitation at 340 nm were recorded at 520 nm for sGFP acceptor fluorescence and 620 nm for Tb-SA donor fluorescence on a Tecan SPARK plate reader (Tecan Group Ltd.). FI520 nm was divided by FI620 nm and multiplied with 10,000 to give a dimensionless HTRF signal.
# [1] = test system: N27 rat dopaminergic neural cells; experiment: Nurr1-regulated gene expression (qPCR); assay type: cell-based; conditions: N27 cells, 0.3, 1 or 3 μM, 21 h, referenced to GAPDH
# Nur77 = target: T2, Nur77 (Homo sapiens, UniProt P22736); experiment: Gal4-Nur77 hybrid reporter gene assay; assay type: cell-based
# T2 construct: expressed in transfected cells; host or cells: HEK293T
# Method: NR modulation was determined in Gal4 hybrid reporter gene assays in HEK293T cells (German Collection of Microorganisms and Cell Culture GmbH, DSMZ) using pFR-Luc (Stratagene, La Jolla, CA, USA; reporter), pRL-SV40 (Promega, Madison, WI, USA; internal control) and pFA-CMV-hNR-LBD[47],[48] plasmids coding for the hinge region and ligand binding domain of the canonical isoform of the respective NR. Cells were cultured in Dulbecco’s modified Eagle’s medium (DMEM), high glucose supplemented with 10% fetal calf serum (FCS), sodium pyruvate (1 mM), penicillin (100 U/mL), and streptomycin (100 μg/mL) at 37°C and 5% CO2 and seeded in 96-well plates (3×10^4 cells/well). […] Five hours after transfection, cells were incubated with the test compounds in Opti-MEM supplemented with penicillin (100 U/mL), streptomycin (100 μg/mL) and 0.1% DMSO for 16 h before luciferase activity was measured using the Dual-Glo Luciferase Assay System (Promega) according to the manufacturer’s protocol on a Tecan Spark luminometer (Tecan Deutschland GmbH, Crailsheim, Germany). Firefly luminescence was divided by Renilla luminescence and multiplied by 1000 resulting in relative light units (RLU) to normalize for transfection efficiency and cell growth. […]
# RXR = experiment: Gal4 hybrid reporter gene assay, selectivity panel; assay type: cell-based, human; conditions: 1 µM; relative activation compared to reference agonists
# Method: (§1) NR modulation was determined in Gal4 hybrid reporter gene assays in HEK293T cells (German Collection of Microorganisms and Cell Culture GmbH, DSMZ) using pFR-Luc (Stratagene, La Jolla, CA, USA; reporter), pRL-SV40 (Promega, Madison, WI, USA; internal control) and pFA-CMV-hNR-LBD[47],[48] plasmids coding for the hinge region and ligand binding domain of the canonical isoform of the respective NR. Cells were cultured in Dulbecco’s modified Eagle’s medium (DMEM), high glucose supplemented with 10% fetal calf serum (FCS), sodium pyruvate (1 mM), penicillin (100 U/mL), and streptomycin (100 μg/mL) at 37°C and 5% CO2 and seeded in 96-well plates (3×10^4 cells/well). After 24 h, medium was changed to Opti-MEM without supplements and cells were transiently transfected using Lipofectamine LTX reagent (Invitrogen, Carlsbad, CA, USA) according to the manufacturer’s protocol. Five hours after transfection, cells were incubated with the test compounds in Opti-MEM supplemented with penicillin (100 U/mL), streptomycin (100 μg/mL) and 0.1% DMSO for 16 h before luciferase activity was measured using the Dual-Glo Luciferase Assay System (Promega) according to the manufacturer’s protocol on a Tecan Spark luminometer (Tecan Deutschland GmbH, Crailsheim, Germany). Firefly luminescence was divided by Renilla luminescence and multiplied by 1000 resulting in relative light units (RLU) to normalize for transfection efficiency and cell growth. Fold activation was obtained by dividing the mean RLU of test compound by the mean RLU of the untreated control. All samples were tested in at least three biologically independent experiments in duplicates. For dose-response curve fitting and calculation of EC50 values, the equation “[Agonist] vs. response -- Variable slope (four parameters)” was used in GraphPad Prism (version 7.00, GraphPad Software, La Jolla, CA, USA).
# THR = experiment: Gal4 hybrid reporter gene assay, selectivity panel; assay type: cell-based, human; conditions: 1 µM; relative activation compared to reference agonists
# Method: as §1
# PPAR = experiment: Gal4 hybrid reporter gene assay, selectivity panel; assay type: cell-based, human; conditions: 1 µM; relative activation compared to reference agonists
# Method: as §1
# RAR = experiment: Gal4 hybrid reporter gene assay, selectivity panel; assay type: cell-based, human; conditions: 1 µM; relative activation compared to reference agonists
# Method: as §1
# DHODH = target: T3, DHODH (Homo sapiens, UniProt Q02127); experiment: DHODH inhibition colorimetric assay on recombinant human protein; assay type: biochemical; conditions: recombinant human DHODH, colorimetric; mean ± S.E.M., n ≥ 3; read-out: IC50 (DHODH)
# T3 construct: using an N-terminally truncated recombinant DHODH enzyme as described previously[20]
# CAR = target: T4, CAR (Homo sapiens, UniProt Q14994); experiment: Gal4 hybrid reporter gene assay, selectivity panel; assay type: cell-based; conditions: 1 µM; relative activation compared to reference agonists
# T4 construct: expressed in transfected cells; host or cells: HEK293T
# T4 sequence (Q14994 109-352 limits assumed): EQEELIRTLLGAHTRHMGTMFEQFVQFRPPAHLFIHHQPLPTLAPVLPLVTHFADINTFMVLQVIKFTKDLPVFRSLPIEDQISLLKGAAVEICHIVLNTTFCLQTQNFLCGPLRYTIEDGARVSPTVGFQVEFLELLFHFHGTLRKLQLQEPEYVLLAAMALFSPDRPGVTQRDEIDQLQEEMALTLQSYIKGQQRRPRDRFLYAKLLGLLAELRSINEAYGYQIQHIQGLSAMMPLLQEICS
# Method: as §1
# recombinant Nurr1 LBD = target: T5, recombinant Nurr1 LBD (Homo sapiens, UniProt P43354); experiment: Isothermal titration calorimetry (ITC); assay type: binding; conditions: 25 °C
# T5 construct: Nurr1 LBD protein (15 μM, expressed as described previously[18]); made in house
# Method: ITC experiments were conducted on an Affinity ITC instrument (TA Instruments, New Castle, DE, USA) at 25 °C with a stirring rate of 75 rpm. Nurr1 LBD protein (15 μM, expressed as described previously[18]) in buffer (20 mM Tris, pH 7.5, 100 mM NaCl, 5% glycerol) containing 5% DMSO was titrated with 32 (100 μM in the same buffer containing […]) in 21 injections (1 × 1 µL and 20 × 4 μL) with an injection interval of 120 s. As control experiments, the test compound was titrated to the buffer, and the buffer was titrated to the Nurr1 LBD protein under otherwise identical conditions. The heats of the compound−protein titration were analyzed using NanoAnalyze software (version 3.11.0, TA Instruments) with independent binding model.
# T2 sequence (P22736 360-595 limits assumed): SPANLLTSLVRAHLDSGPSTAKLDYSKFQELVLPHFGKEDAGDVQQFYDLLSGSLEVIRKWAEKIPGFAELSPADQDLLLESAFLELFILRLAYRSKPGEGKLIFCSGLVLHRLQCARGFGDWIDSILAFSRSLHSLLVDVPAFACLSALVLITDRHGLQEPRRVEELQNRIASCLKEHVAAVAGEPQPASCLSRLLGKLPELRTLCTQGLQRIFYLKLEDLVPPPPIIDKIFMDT
# T3 sequence (Q02127 31-395): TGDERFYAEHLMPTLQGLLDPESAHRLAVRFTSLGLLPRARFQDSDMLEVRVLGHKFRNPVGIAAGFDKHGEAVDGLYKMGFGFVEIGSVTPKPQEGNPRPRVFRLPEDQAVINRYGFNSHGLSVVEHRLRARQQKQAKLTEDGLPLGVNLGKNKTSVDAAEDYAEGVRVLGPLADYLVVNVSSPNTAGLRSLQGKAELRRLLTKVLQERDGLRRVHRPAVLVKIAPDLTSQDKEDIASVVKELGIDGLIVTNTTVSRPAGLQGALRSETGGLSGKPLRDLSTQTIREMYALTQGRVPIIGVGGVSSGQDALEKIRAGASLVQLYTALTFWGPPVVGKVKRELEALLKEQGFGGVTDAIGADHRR
# T1 sequence (P43354 360-595 limits assumed): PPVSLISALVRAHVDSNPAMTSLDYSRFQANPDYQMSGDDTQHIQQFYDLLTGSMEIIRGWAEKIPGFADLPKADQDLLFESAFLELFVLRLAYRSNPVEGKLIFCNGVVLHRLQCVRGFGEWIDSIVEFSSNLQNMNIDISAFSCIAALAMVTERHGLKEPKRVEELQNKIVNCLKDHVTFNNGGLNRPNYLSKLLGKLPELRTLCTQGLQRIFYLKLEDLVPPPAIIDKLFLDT
# T5 sequence (P43354 360-595 limits assumed): as above
compound,measurement,setting,value
"COc1cccc(-c2ccc(NC(=O)C3=C(c4nn[nH]n4)CCC3)c(F)c2)c1 [compound 32, N-{3-Fluoro-3’-methoxy-[1,1'-biphenyl]-4-yl}-2-(2H-tetrazol-5-yl)cyclopent-1-ene-1-carboxamide]",impact on Nurr1 dimer formation,Nurr1 LBD homodimer,robustly diminished Nurr1 dimer formation
same,BDNF mRNA expression,[1],enhanced expression
same,BIRC5 mRNA expression,[1],robust induction
same,CCND2 mRNA expression,[1],enhanced expression
same,CRMP4 mRNA expression,[1],enhanced expression
same,FLRT2 mRNA expression,[1],enhanced expression
same,SOD2 mRNA expression,[1],robust induction
same,Sesn3 mRNA expression,[1],robust induction
same,TH mRNA expression,[1],enhanced the expression
same,XIAP mRNA expression,[1],robust induction
same,EC50,Nur77,160 ± 30 nM
same,fold activation (Nur77),Nur77,1.9 fold
same,activity on RXR,RXR,no activity
same,activity on THR,THR,no activity
same,activity on PPAR,PPAR,no activity
same,activity on RAR,RAR,no activity
same,IC50,DHODH,10000 ± 2000 nM
same,activity on CAR,CAR,no activity
same,Kd,recombinant Nurr1 LBD,200 nM
